Assay results published in patent US20250163043A1 (TRANSTHERA SCIENCES (NANJING), INC., priority 2021, published 2025).

Columns and labels:
CDK5/p25NCK = CDK5/p25NCK (Homo sapiens, UniProt Q00535); assay: ADP-Glo kinase assay on CDK enzymatic activity, CDK5/p25NCK; type: biochemical; conditions: 10 concentrations from 10 μM, 4-fold, 60 min room temperature
Summary of the method: (§1)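 IC50 values derive from luminescent ADP detection (ADP-Glo) after a 60 min room-temperature kinase reaction with CDK tide and ATP. Dose range: 10 μM down in 4-fold steps, ten points.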

CDK2/CycA2 = CDK2/CycA2 (Homo sapiens, UniProt P24941); assay: ADP-Glo kinase assay on CDK enzymatic activity, CDK2/CycA2; type: biochemical; conditions: 10 concentrations from 10 μM, 4-fold, 60 min room temperature
Summary of the method: as §1

CDK9/CycT1 = CDK9/CycT1 (Homo sapiens, UniProt P50750); assay: ADP-Glo kinase assay on CDK enzymatic activity, CDK9/CycT1; type: biochemical; conditions: 10 concentrations from 10 μM, 4-fold, 60 min room temperature
Summary of the method: as §1

[1] = tested on: NCI-H929 (human myeloma cells); assay: CCK-8 cell proliferation assay, NCI-H929; type: cell-based; conditions: 72 h incubation, 11 concentrations from 5000 nM, 3-fold
Procedure: Test samples: the compounds of the present invention, having structures shown above.
RMPI 1640, Fetal Bovine Serum (FBS), a CCK-8 method cell proliferation assay kit, DMSO (dimethyl sulfoxide), a 96-well cell culture plate, an Iscov'Modified Dulbecco's culture medium (IMDM), a multifunctional microplate reader,
MV-4-11 (human myelomonocytic leukemia cells) and NCI-H929 (human myeloma cells).
The compounds were dissolved in DMSO and diluted 3-fold in the 96-well plate to obtain stock solutions with 11 concentration gradients. Each cell was inoculated into a 96-well plate, and the diluted compound stock solution was added to the 96-well plate to obtain a series of 11 concentration gradients of compound solutions with final concentrations of 5000 nM starting and 3-fold gradient decreasing, wherein the final DMSO content was […]. There was a medium containing 1‰ DMSO in the negative control well. The treated cells were incubated at 37° C. with 5% CO2 and 95% humidity, wherein MV-4-11 were incubated for 24 h and NCI-H929 for 72 h. After incubation was completed, each well was added with 10 μL of CCK-8 reagent, incubated for 1-3 h at room temperature and placed in the microplate reader, and the absorbance was read at 450 nm.
The inhibition rate was calculated according to the following formula: […]
ODcmpd: compound absorbance; ODpositive: average value of the absorbance of positive control without compound; ODvehicle: average value of the absorbance of solvent vehicle control.
IC50 values were fitted using GraphPad 7.0 based on inhibition rates of compounds at different concentrations.

CDK1/CycE1 = CDK1/CycE1 (Homo sapiens, UniProt P06493); assay: ADP-Glo kinase assay on CDK enzymatic activity, CDK1/CycE1; type: biochemical; conditions: ADP-Glo; 10 concentrations from 10 μM, 4-fold; 60 min room temperature; read-out: CDK1/CycE1/nM (IC50)
Summary of the method: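 Compounds in 10-point 4-fold dilutions from 10 μM final, preincubated 10 min with kinase, then substrate/ATP added; 60 min reaction at room temperature. ADP-Glo luminescence read.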

CDK3/CycE1 = CDK3/CycE1 (Homo sapiens, UniProt Q00526); assay: ADP-Glo kinase assay on CDK enzymatic activity, CDK3/CycE1; type: biochemical; conditions: 10 concentrations from 10 μM, 4-fold, 60 min room temperature
Summary of the method: as §1

Sequence of CDK9/CycT1 (P50750 whole entry): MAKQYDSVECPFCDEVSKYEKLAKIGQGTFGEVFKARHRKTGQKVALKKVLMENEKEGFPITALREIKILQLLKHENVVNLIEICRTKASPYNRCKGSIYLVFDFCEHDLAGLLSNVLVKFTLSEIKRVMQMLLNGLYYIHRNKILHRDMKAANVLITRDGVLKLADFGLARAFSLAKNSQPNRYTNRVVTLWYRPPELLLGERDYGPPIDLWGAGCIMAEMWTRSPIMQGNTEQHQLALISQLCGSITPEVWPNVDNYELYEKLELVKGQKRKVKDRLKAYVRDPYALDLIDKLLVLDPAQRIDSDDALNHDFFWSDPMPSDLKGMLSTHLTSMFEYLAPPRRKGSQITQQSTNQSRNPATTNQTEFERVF
Sequence of CDK9/CycT1 (O60563 whole entry partner): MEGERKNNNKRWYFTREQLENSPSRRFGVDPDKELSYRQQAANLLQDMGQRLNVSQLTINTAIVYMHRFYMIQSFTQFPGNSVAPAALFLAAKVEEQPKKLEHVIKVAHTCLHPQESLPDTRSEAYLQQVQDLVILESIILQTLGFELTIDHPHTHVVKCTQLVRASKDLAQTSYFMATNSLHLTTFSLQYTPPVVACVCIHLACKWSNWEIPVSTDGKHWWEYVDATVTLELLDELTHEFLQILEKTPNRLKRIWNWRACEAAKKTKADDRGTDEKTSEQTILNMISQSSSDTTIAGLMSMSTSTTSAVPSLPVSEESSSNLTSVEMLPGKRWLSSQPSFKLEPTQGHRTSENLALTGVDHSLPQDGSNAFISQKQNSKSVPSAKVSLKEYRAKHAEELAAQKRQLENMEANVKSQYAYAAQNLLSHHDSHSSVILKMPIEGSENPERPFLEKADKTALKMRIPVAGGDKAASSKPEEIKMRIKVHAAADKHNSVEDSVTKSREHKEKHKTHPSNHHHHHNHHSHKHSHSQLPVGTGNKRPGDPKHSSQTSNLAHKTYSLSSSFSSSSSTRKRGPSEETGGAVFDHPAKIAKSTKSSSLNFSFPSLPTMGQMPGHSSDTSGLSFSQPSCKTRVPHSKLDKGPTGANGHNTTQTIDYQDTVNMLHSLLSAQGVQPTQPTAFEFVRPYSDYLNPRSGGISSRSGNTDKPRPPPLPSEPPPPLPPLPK
Sequence of CDK3/CycE1 (Q00526 whole entry, species assumed): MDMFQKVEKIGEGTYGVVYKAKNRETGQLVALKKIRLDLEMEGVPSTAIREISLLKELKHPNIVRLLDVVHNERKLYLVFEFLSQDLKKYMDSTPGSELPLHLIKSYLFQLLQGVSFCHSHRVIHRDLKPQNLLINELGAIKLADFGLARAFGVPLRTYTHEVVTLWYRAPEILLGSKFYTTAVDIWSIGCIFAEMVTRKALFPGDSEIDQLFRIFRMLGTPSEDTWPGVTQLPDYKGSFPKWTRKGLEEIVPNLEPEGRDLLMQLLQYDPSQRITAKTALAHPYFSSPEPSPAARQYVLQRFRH
Sequence of CDK3/CycE1 (P24864 whole entry partner, species assumed): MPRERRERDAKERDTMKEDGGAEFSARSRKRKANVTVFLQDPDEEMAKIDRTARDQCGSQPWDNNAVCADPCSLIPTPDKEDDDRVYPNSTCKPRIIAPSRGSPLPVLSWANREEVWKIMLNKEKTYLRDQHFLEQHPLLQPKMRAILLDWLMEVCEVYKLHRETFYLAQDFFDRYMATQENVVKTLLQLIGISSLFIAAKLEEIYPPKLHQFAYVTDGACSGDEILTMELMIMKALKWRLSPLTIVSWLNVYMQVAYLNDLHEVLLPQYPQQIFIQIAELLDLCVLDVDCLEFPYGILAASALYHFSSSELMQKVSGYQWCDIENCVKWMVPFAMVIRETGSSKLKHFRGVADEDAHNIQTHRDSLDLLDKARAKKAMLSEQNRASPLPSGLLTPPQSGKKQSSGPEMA
Sequence of CDK5/p25NCK (Q00535 whole entry, species assumed): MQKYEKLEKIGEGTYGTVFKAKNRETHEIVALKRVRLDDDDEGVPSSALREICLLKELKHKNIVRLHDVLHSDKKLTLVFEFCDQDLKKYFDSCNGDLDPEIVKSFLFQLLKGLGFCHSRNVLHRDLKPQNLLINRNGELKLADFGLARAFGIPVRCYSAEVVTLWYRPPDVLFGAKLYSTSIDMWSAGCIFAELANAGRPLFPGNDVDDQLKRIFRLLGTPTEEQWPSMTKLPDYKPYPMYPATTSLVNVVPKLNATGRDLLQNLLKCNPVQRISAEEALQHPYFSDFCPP
Sequence of CDK5/p25NCK (Q15078 99-307 partner limits assumed, species assumed): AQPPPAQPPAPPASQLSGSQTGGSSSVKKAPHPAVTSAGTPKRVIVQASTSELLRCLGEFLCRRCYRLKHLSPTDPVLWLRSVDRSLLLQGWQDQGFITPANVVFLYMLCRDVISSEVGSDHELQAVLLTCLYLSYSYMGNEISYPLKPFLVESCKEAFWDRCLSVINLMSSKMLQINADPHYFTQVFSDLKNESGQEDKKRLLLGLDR
Sequence of CDK1/CycE1 (P06493 whole entry, species assumed): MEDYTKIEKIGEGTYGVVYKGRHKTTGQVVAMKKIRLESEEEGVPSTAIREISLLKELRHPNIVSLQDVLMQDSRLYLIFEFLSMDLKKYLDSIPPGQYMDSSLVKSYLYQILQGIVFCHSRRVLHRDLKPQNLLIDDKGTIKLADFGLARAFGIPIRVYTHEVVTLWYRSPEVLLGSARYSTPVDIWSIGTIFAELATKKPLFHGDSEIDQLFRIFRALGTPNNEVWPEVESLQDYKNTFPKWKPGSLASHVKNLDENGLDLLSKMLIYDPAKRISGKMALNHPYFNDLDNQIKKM
Sequence of CDK1/CycE1 (P24864 whole entry partner, species assumed): as the sequence (P24864 whole entry partner, species assumed) above

SMILES | IC50 (CDK5/p25NCK) [nM] | IC50 (CDK2/CycA2) [nM] | IC50 (CDK9/CycT1) [nM] | IC50 [1] [nM] | IC50 (CDK1/CycE1) [nM] | IC50 (CDK3/CycE1) [nM]
CC(C)Nc1nc(C#N)cc2cnc(N[C@H]3CC[C@H](N)C3)cc12 [Compound 28, 7-(((1S,3S)-3-aminocyclopentyl)amino)-1-(isopropylamino)-2,6-naphthyridine-3-carbonitrile] | 96 | 50 | 3 | 25 | 220 | 97
CC(C)Nc1nc(C#N)cc2cnc(N[C@H]3CC[C@H](N)C3)nc12 [Compound 45, 2-(((1S,3S)-3-aminocyclopentyl)amino)-8-(isopropylamino)pyrido[3,4-d]pyrimidine-6-carbonitrile] | 153 | 47 | 2 | 22 | 114 | 85
CC(C)Nc1nc(C(F)F)cc2cnc(N[C@H]3CC[C@H](N)C3)cc12 [Compound 52, N^7-((1S,3S)-3-aminocyclopentyl)-3-(difluoromethyl)-N^1-isopropyl-2,6-naphthyridine-1,7-diamine] | 16 | 12 | 1 | 9 | – | 23

Further compounds by falling IC50 (CDK5/p25NCK), results first:

IC50 (CDK5/p25NCK) [nM] | IC50 (CDK2/CycA2) [nM] | IC50 (CDK9/CycT1) [nM] | IC50 [1] [nM] | IC50 (CDK1/CycE1) [nM] | IC50 (CDK3/CycE1) [nM] | SMILES
56 | 60 | 1 | 26.1 | 43 | 24 | CC(C)Nc1nc(C#N)cc2cnc(N[C@H]3CCCNC3)nc12 [Compound 55, (S)-8-(isopropylamino)-2-(piperidin-3-ylamino)pyrido[3,4-d]pyrimidine-6-carbonitrile]
31 | 15 | 2 | 14 | – | 95 | CC(C)Nc1nc(C#N)cc2cnc(N[C@@H]3CC[C@@H](N)C3)cc12 [Compound 30, 7-(((1R,3R)-3-aminocyclopentyl)amino)-1-(isopropylamino)-2,6-naphthyridine-3-carbonitrile]
3 | 3 | 1 | 8 | – | 9 | CC(C)Nc1nc(C#N)cc2cnc(N[C@H]3CC[C@H](O)C3)cc12 [Compound 33, 7-(((1S,3S)-3-hydroxycyclopentyl)amino)-1-(isopropylamino)-2,6-naphthyridine-3-carbonitrile]
